EP0799188B1, “AMIDES OF MONO AND DICARBOXYLIC ACIDS WITH GLYCOSAMINES, SELECTIVELY ACTIVE ON THE CANNABINOID PERIPHERAL RECEPTOR” (LIFEGROUP S.p.A., priority 1994, dated 1996)
Like-named read-outs stand apart in the source and are kept apart here.

Assays:
[1] = molecular target: T1, CB2 receptor (Rattus norvegicus, UniProt Q9QZN9); test: 3H-WIN 55,212-2 binding displacement on RBL-2H3 cell membranes; conditions: IC50 (nM), RBL-2H3 cell membranes; 1% DMSO; means ± SEM
T1 construct: 30 µg membrane proteins prepared in item a); endogenous in cells; host or cells: RBL-2H3 cells (plasma membrane preparation)
T1 sequence (Q9QZN9 1-360): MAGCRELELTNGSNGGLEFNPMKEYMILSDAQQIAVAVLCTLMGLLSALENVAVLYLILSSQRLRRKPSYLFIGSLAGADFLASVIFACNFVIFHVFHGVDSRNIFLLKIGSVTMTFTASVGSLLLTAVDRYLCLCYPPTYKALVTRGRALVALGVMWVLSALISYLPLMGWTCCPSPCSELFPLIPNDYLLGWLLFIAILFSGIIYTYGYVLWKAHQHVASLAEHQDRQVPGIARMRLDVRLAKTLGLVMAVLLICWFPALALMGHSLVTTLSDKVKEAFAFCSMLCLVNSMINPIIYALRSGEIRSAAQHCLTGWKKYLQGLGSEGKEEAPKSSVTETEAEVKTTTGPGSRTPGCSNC

[2] = system: RBL-2H3 cells; test: 3H-serotonin release induced by ADNP/DNP.HSA immunogenic stimulation; format: cell-based, rat
[3] = solubility in organic solvents; format: physicochemical; conditions: organic solvent or mixture, read-out: solubility in org. sol.
[4] = water solubility
[5] = Rattus norvegicus, RBL-2H3, DMSO 0.2%
[6] = Rattus norvegicus, RBL-2H3, DMSO 1%, 100µM
[7] = Rattus norvegicus, RBL-2H3, concentration inhibiting by 50% the net release of 3H serotonin, 0.2% DMSO, 15 minutes release period, means ± SEM, read-out: EC50
[8] = Rattus norvegicus, RBL-2H3, DMSO 0.2%, 100µM

Row | Structure (SMILES) | solubility ([3]; in DMSO) [µg/mL] | water solubility [4] | inhibition at 100 µM [2, 6] [%] | solubility ([3]; in ethanol) [µg/mL] | further results
1 | C=C(C)[C@@H]1CCC(C)=C[C@H]1c1c(O)cc(CCCCC)cc1O [Cannabidiol, reference compound] | – | – | – | – | IC50 [1]: > 1000 nM
2 | CCCCCCCCCCCCCCCC(=O)NCCO [N-(2-hydroxyethyl)-hexadecanamide, reference compound] | – | – | – | – | 3H-serotonin net release (%) ([2]; 100µM, 1% DMSO and 1% ethanol): 0%; EC50 ([2]; Rattus norvegicus, RBL-2H3, inhibition of serotonin release, 1% DMSO and 1% ethanol, read-out: ED50 (µm)): 2.6 µM
3 | CCCCCCCCCCCC(=O)N[C@H]1C(O)O[C@H](CO)[C@@H](O)[C@@H]1O (stereo partly drawn) [Example 15, N-lauroyl-D-glucosamine] | > 5000 | slightly soluble | 86 | – | inhibition at 20 µM [2, 5]: 67%; EC50 [2, 7]: 12 µM
4 | CCCCCCCCCCCC(=O)N1CC(O)C[C@H]1C(=O)O (stereo partly drawn) [Example 17, N-lauroyl-4-hydroxy-L-proline] | > 10000 | slightly soluble | – | > 10000 | solubility ([4]; phosphate buffer, pH 7.4, aqueous buffer): > 10000 µg/mL
5 | O=C(O)CNC(=O)/C=C/CCCCCCCCC(=O)NCC(=O)O [Example 13, N,N'-trans-2-dodecendioyl-diglycine] | > 10000 | slightly soluble | 54 | – | solubility ([4]; water): > 10000 µg/mL
6 | CCCCCCCCCCCC(=O)NCC(=O)OC [Example 9, N-lauroyl-glycine methylester] | > 10000 | slightly soluble | – | > 10000 | inhibition at 100 µM [2, 8]: 55%
7 | CCCCCCCC/C=C\CCCCCCCC(=O)N[C@@H](CO)C(=O)O [Example 3, N-oleoyl-L-serine] | > 10000 | slightly soluble | – | – | –
8 | CCCCCCCC/C=C\CCCCCCCC(=O)N[C@H]1C(O)O[C@H](CO)[C@@H](O)[C@@H]1O (stereo partly drawn) [Example 16, N-oleoyl-D-glucosamine] | > 5000 | slightly soluble | 86 | – | inhibition at 20 µM [2, 5]: 92%; EC50 [2, 7]: 2.4 ± 0.5 µM; EC50 ([2]; Rattus norvegicus, RBL-2H3, inhibition of 3H-serotonin release, +anandamide (12.5 µM), read-out: ED50 (the source's name)): 4.2 µM; EC50 ([2]; Rattus norvegicus, RBL-2H3, inhibition of 3H-serotonin release, -anandamide, read-out: ED50 (the source's name)): 2.9 µM
9 | CCCCCc1cc(O)c2c(c1)OC(C)(C)[C@@H]1CCC(C)=C[C@@H]21 [Δ9-THC, Δ9-tetrahydrocannabinol, reference compound] | – | – | – | – | 3H-serotonin net release (%) ([2]; 25µM, 0.1% DMSO and 0.1% ethanol): 27%; EC50 ([2]; Rattus norvegicus, RBL-2H3, read-out: ED50 (µm)): 5 µM; inhibition at 25 µM ([2]; Rattus norvegicus, RBL-2H3, 25µM, -anandamide, read-out: 3H-serotonin net release inhibition (%)): 73%; EC50 ([2]; Rattus norvegicus, RBL-2H3, read-out: ED50 (the source's name)): 5 µM; effect on serotonin release (RBL cells immunogenic activation) ([2]; statement in words on Table 3): able to inhibit, in a concentration-dependent way
10 | O=C(CCCCCCCC(=O)NC(CO)C(=O)O)NC(CO)C(=O)O (stereo not shown) [Example 12, N,N' -bis-(1-carboxy-2-hydroxyethyl)-nonandiamide] | > 10000 | slightly soluble | – | > 10000 | solubility ([4]; water): > 10000 µg/mL
11 | CCCCCCCCCCCC(=O)N[C@@H](CO)C(=O)O [Example 2, N-lauroyl-L-serine] | > 10000 | slightly soluble | 61 | > 10000 | solubility ([4]; water): > 10000 µg/mL; inhibition at 100 µM [2, 8]: 79%
12 | CCCCCCCCCCCCCCCC(=O)NCCC(=O)O [Example 10, N-palmitoyl-β-alanine] | > 5000 | slightly soluble | – | > 5000 | inhibition at 100 µM [2, 8]: 47%; EC50 ([2]; Rattus norvegicus, RBL-2H3, concentration inhibiting by 50% the net release of 3H serotonin, 1% DMSO, 15 minutes release period, means ± SEM, read-out: EC50): 30 µM
